Data on 25 compounds can be found in US10611760B2, “Therapeutic compounds as inhibitors of the orexin-1 receptor” (C4X Discovery Limited, priority 2014, dated 2020).

For one assay, the target named is T1, hOX2R (Homo sapiens, UniProt O43614).
T1 sequence (O43614 1-444): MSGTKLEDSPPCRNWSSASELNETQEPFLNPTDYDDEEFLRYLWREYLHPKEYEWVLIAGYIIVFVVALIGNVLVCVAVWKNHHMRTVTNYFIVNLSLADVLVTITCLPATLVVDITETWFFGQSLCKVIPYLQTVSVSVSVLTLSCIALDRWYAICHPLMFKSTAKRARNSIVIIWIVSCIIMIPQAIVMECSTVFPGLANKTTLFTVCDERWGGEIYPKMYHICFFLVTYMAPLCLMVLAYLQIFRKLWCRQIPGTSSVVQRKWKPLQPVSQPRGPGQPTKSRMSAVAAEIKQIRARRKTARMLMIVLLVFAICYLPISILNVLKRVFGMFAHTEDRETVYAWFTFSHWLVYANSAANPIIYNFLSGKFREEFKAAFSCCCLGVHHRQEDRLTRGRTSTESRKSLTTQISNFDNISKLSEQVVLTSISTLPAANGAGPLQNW
As to the kind of experiment: Intracellular calcium measurements using division-arrested cells, OX2. The format is cell-based. The conditions noted are these: agonist orexin B at 2×EC50, * = single experiment, otherwise average of at least two, read-out: pIC50 OX2 (converted). How it is done: (§1) Intracellular Calcium Measurements Using Division-arrested Cells (Table 1):
(§2) Test compounds are prepared as 10 mM stock solutions in DMSO, then serially diluted in half log concentrations with DMSO followed by dilution with assay buffer (HBSS (Sigma-Aldrich, H8264) containing 20 mM HEPES (Sigma-Aldrich, H4034), 0.1% (w/v) bovine serum albumin and adjusted to pH 7.4) to a top final assay concentration of 10 μM.
(§3) Human OX1 (CT-A474) and human OX2 (CT-A475) receptor-expressing division-arrested cells are plated into 384 well black, clear bottom, cell-bind plates at a seeding density of 10,000 cells/50 μL growth media. The seeded plates are incubated at 37° C. in air supplemented with 5% CO2 for 16 hrs.
(§4) The media is removed and replaced with 30 μL/well of cell loading buffer (a vial of Calcium 5 is solubilized in 22 mL of assay buffer to which a freshly prepared 250 mM solution of probenecid in 1:1 1M NaOH to assay buffer (200 μL) is added) and the cells incubated for 1 hr at 37° C. The serially diluted test compounds (10 μL/well) are added to the plate, which is then incubated for 10 mins and placed in a FlexStation III reader.

In the next assay the target is T2, hOX1R (Homo sapiens, UniProt O43613).
T2 sequence (O43613 1-425): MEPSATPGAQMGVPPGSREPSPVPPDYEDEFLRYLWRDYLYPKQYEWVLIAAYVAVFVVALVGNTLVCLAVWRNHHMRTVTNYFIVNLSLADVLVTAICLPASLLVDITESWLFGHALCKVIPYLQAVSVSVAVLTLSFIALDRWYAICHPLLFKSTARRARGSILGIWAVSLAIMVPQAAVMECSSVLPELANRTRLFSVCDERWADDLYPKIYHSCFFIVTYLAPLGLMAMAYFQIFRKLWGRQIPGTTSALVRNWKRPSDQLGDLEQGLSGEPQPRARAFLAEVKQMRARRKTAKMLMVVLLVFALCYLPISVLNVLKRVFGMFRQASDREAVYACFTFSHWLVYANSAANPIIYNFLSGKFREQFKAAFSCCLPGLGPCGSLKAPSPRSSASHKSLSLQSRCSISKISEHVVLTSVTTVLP
As to the kind of experiment: Intracellular calcium measurements using division-arrested cells, OX1. Format: cell-based. Particulars: agonist orexin A at 2×EC50, * = single experiment, otherwise average of at least two, read-out: pIC50 OX1 (converted). The protocol: as §1, §2, §3, §4
(Calcium assays in cells follow changes in intracellular calcium, usually with a dye or a luminescent sensor.)

Structures are written as SMILES.

Turning to `CC[C@@H](CNc1ccc(Cl)cn1)NC(=O)c1cc(C)ccc1-n1nccn1` [Example 2, (S)—N-(1-((5-chloropyridin-2-yl)amino)butan-2-yl)-5-methyl-2-(2H-1,2,3-triazol-2-yl)benzamide], the IC50 at hOX2R was 2000 nM; on hOX1R, 39.8 nM. For `CC[C@@H](CNc1ccc(Cl)cn1)N(C)C(=O)c1ccccc1-c1ccccc1` [Example 3, (S)—N-(1-((5-chloropyridin-2-yl)amino)butan-2-yl)-N-methyl-[1,1′-biphenyl]-2-carboxamide], in that order: 1000 nM and 20 nM. Taken in the same sequence, the figures for `CC(C)[C@@H](CNc1ccc(Cl)cn1)NC(=O)c1ccccc1-c1ccccc1` [Example 4, (S)—N-(1-((5-chloropyridin-2-yl)amino)-3-methylbutan-2-yl)-[1,1′-biphenyl]-2-carboxamide] were > 10000 nM and 158 nM.

`CC(C)C[C@@H](CNc1ccc(Cl)cn1)NC(=O)c1ccccc1-c1ccccc1` [Example 5, (S)—N-(1-((5-chloropyridin-2-yl)amino)-4-methylpentan-2-yl)-[1,1′-biphenyl]-2-carboxamide]: the IC50 is > 10000 nM on hOX2R and 1000 nM on hOX1R.

As for `Cc1nc(-c2ccccc2)c(C(=O)N[C@H](CNc2ccc(Cl)cn2)CC(C)C)s1` [Example 7, (S)—N-(1-((5-chloropyridin-2-yl)amino)-4-methylpentan-2-yl)-2-methyl-4-phenylthiazole-5-carboxamide], the IC50 on hOX1R is 1580 nM. Take `CC(C)C[C@@H](CNc1ccc(Cl)cn1)N(C)C(=O)c1ccccc1-c1ccccc1` [Example 8, (S)—N-(1-((5-chloropyridin-2-yl)amino)-4-methylpentan-2-yl)-N-methyl-[1,1′-biphenyl]-2-carboxamide]: the IC50 is > 10000 nM at hOX2R and 794 nM at hOX1R.

Take `Cc1nc(-c2ccccc2)c(C(=O)N(C)[C@H](CNc2ccc(Cl)cn2)C(C)C)s1` [Example 11, (S)—N-(1-((5-chloropyridin-2-yl)amino)-3-methylbutan-2-yl)-N,2-dimethyl-4-phenylthiazole-5-carboxamide]: the IC50 was > 7940 nM on hOX2R and 79.4 nM at hOX1R. For `CN(C(=O)c1ccccc1-c1ccccc1)[C@H](CNc1ccc(Cl)cn1)C(C)(C)C` [Example 12, (S)—N-(1-((5-chloropyridin-2-yl)amino)-3,3-dimethylbutan-2-yl)-N-methyl-[1,1′-biphenyl]-2-carboxamide], in that order: > 10000 nM and 1000 nM.

Take `CN(C(=O)c1ccccc1-c1ccccc1)[C@H](CNc1ccc(Cl)cn1)C1CC1` [Example 13, (S)—N-(2-((5-chloropyridin-2-yl)amino)-1-cyclopropylethyl)-N-methyl-[1,1′-biphenyl]-2-carboxamide]: the results for the IC50 on hOX2R and at hOX1R were 2510 nM and 39.8 nM, respectively. As for `CC(C)[C@@H](CNc1ccc(Cl)cn1)N(C(=O)c1ccccc1-c1ccccc1)C1CC1` [Example 15, (S)—N-(1-((5-chloropyridin-2-yl)amino)-3-methylbutan-2-yl)-N-cyclopropyl-[1,1′-biphenyl]-2-carboxamide], the IC50 on hOX2R was > 10000 nM. As to `CC[C@@H](CNc1ccc(Cl)cn1)N(C)C(=O)c1cc(Cl)ccc1-n1nccn1` [Example 16, (S)-5-chloro-N-(1-((5-chloropyridin-2-yl)amino)butan-2-yl)-N-methyl-2-(2H-1,2,3-triazol-2-yl)benzamide], the results for the IC50 at hOX2R and on hOX1R were 1260 nM and 12.6 nM, respectively. As for `CC[C@@H](CNc1ccc(Cl)cn1)N(C)C(=O)c1cc(C(F)(F)F)ccc1-n1nccn1` [Example 17, (S)—N-(1-((5-chloropyridin-2-yl)amino)butan-2-yl)-N-methyl-2-(2H-1,2,3-triazol-2-yl)-5-(trifluoromethyl)benzamide], at hOX1R, the IC50 is 200 nM. On to `CC[C@@H](CNc1ccc(Cl)cn1)N(C)C(=O)c1cc(F)ccc1-n1nccn1` [Example 18, (S)—N-(1-((5-chloropyridin-2-yl)amino)butan-2-yl)-5-fluoro-N-methyl-2-(2H-1,2,3-triazol-2-yl)benzamide], for which the IC50 is > 10000 nM at hOX2R and 79.4 nM at hOX1R. With `CC[C@@H](CNc1ccc(Cl)cn1)N(C)C(=O)c1nc(C)ccc1-n1nccn1` [Example 21, (S)—N-(1-((5-chloropyridin-2-yl)amino)butan-2-yl)-N,6-dimethyl-3-(2H-1,2,3-triazol-2-yl)picolinamide], the IC50 on hOX1R is 7.94 nM. In the case of `CC[C@@H](CNc1ccc(Cl)cn1)N(C)C(=O)c1cc(C)ccc1N1CCOCC1` [Example 22, (S)—N-(1-((5-chloropyridin-2-yl)amino)butan-2-yl)-N,5-dimethyl-2-morpholinobenzamide], the IC50 at hOX2R was > 10000 nM. Turning to `CC(C)[C@@H](COCc1ccc(F)cc1)N(C)C(=O)c1ccccc1-c1ccccc1` [Example 29, (S)—N-(1-((4-fluorobenzyl)oxy)-3-methylbutan-2-yl)-N-methyl-[1,1′-biphenyl]-2-carboxamide], the IC50 on hOX1R is 1580 nM.

Take `CC(C)[C@@H](COc1ncc2ccccc2n1)N(C)C(=O)c1ccccc1-c1ccccc1` [Example 31, (S)—N-methyl-N-(3-methyl-1-(quinazolin-2-yloxy)butan-2-yl)-[1,1′-biphenyl]-2-carboxamide]: the IC50 on hOX1R was 200 nM.

With `CC(C)[C@@H](COc1nccc(-c2ccccc2)n1)N(C)C(=O)c1ccccc1-c1ccccc1` [Example 32, (S)—N-methyl-N-(3-methyl-1-((4-phenylpyrimidin-2-yl)oxy)butan-2-yl)-[1,1′-biphenyl]-2-carboxamide], the IC50 on hOX1R is 200 nM. For `CC(C)[C@@H](COc1nc2ccccc2n1C)N(C)C(=O)c1ccccc1-c1ccccc1` [Example 33, (S)—N-methyl-N-(3-methyl-1-((1-methyl-1H-benzo[d]imidazol-2-yl)oxy)butan-2-yl)-[1,1′-biphenyl]-2-carboxamide], at hOX1R, the IC50 is 100 nM. Still for that read-out and setting: under `CC(C)[C@@H](CNc1ncc2ccccc2n1)N(C)C(=O)c1ccccc1-c1ccccc1` [Example 36, (S)—N-methyl-N-(3-methyl-1-(quinazolin-2-ylamino)butan-2-yl)-[1,1′-biphenyl]-2-carboxamide] stands 63.1 nM; under `Cc1cc(C)nc(NC[C@H](C(C)C)N(C)C(=O)c2ccccc2-c2ccccc2)n1` [Example 37, (S)—N-(1-((4,6-dimethylpyrimidin-2-yl)amino)-3-methylbutan-2-yl)-N-methyl-[1,1′-biphenyl]-2-carboxamide], 79.4 nM.

For the compound `CC[C@@H](CNc1ccc(C(F)(F)F)cn1)N(C)C(=O)c1cc(Cl)ccc1-n1nccn1` [Example 42, (S)-5-chloro-N-methyl-2-(2H-1,2,3-triazol-2-yl)-N-(1-((5-(trifluoromethyl)pyridin-2-yl)amino)butan-2-yl)benzamide], the IC50 on hOX2R was 1000 nM. For the compound `CC(C)[C@@H](CNc1ccc(Cl)cn1)N(C)C(=O)c1cn(C)c2ccccc12` [Example 50, (S)—N-(1-((5-chloropyridin-2-yl)amino)-3-methylbutan-2-yl)-N,1-dimethyl-1H-indole-3-carboxamide], the IC50 at hOX1R was 631 nM.

Take `CC[C@@H](CNc1cccc(C)n1)N(C)C(=O)c1cc(Cl)ccc1-n1nccn1` [Example 53, (S)-5-chloro-N-methyl-N-(1-((6-methylpyridin-2-yl)amino)butan-2-yl)-2-(2H-1,2,3-triazol-2-yl)benzamide]: the IC50 at hOX1R is 251 nM.

On to `CC[C@@H](CNc1ccc(C(F)(F)F)nc1)N(C)C(=O)c1nc(C)ccc1-n1nccn1` [Example 55, (S)—N,6-dimethyl-3-(2H-1,2,3-triazol-2-yl)-N-(1-((6-(trifluoromethyl)pyridin-3-yl)amino)butan-2-yl)picolinamide], for which the IC50 on hOX1R is 79.4 nM.
